Non-standard residues stand in square brackets, D forms with d. Residues, ends and D or L forms follow the SMILES beside them. ξ: configuration not given here. ξPip = O=C(O)C1CCCCN1

Sequence of Intercellular adhesion molecule (ICAM-1), Integrin alpha-L/beta-2 (P20701 whole entry): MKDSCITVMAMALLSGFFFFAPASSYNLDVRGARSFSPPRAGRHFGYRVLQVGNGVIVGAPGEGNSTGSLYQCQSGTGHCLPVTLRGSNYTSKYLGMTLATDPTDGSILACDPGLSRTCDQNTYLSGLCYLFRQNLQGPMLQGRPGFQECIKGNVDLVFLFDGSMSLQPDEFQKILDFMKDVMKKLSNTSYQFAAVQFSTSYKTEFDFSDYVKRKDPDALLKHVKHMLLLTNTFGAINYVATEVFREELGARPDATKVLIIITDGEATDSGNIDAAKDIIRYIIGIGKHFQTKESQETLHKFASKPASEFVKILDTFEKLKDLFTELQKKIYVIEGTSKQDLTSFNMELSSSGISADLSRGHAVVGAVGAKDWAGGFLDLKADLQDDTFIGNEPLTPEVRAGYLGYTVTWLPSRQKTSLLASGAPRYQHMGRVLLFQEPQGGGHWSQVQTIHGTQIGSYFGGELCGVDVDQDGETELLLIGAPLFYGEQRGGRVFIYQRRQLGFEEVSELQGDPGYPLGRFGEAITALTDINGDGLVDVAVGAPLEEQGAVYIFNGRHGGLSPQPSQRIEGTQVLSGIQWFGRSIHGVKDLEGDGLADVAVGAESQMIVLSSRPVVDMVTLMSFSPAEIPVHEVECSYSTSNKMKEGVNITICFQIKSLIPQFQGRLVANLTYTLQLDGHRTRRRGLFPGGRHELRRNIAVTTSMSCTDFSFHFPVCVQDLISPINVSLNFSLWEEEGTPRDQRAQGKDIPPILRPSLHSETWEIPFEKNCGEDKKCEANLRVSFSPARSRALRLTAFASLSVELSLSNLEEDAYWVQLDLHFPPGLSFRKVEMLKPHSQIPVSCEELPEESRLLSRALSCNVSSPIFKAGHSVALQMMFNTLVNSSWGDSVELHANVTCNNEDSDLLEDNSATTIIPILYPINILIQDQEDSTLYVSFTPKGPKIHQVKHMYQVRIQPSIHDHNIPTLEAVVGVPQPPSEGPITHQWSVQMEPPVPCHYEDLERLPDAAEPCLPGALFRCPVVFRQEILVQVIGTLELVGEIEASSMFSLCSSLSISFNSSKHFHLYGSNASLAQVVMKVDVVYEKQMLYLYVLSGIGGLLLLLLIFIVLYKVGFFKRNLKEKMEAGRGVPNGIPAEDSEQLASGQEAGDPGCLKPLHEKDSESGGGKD
Sequence of Intercellular adhesion molecule (ICAM-1), Integrin alpha-L/beta-2 (P05362 whole entry): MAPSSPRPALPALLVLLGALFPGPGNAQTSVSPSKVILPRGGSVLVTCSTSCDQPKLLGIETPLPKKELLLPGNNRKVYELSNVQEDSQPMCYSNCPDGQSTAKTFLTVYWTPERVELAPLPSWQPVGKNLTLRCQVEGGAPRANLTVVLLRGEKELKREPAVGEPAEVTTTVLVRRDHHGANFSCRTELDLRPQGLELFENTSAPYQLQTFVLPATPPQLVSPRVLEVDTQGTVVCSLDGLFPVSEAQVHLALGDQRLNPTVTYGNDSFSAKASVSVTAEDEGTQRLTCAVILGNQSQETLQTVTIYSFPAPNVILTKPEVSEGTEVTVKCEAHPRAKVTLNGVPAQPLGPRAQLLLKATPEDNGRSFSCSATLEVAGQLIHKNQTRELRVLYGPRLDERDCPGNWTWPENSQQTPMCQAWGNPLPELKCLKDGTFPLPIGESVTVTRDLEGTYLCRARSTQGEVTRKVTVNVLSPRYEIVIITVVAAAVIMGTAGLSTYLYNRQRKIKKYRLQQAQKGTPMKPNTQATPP
Sequence of Intercellular adhesion molecule (ICAM-1), Integrin alpha-L/beta-2 (P05107 whole entry): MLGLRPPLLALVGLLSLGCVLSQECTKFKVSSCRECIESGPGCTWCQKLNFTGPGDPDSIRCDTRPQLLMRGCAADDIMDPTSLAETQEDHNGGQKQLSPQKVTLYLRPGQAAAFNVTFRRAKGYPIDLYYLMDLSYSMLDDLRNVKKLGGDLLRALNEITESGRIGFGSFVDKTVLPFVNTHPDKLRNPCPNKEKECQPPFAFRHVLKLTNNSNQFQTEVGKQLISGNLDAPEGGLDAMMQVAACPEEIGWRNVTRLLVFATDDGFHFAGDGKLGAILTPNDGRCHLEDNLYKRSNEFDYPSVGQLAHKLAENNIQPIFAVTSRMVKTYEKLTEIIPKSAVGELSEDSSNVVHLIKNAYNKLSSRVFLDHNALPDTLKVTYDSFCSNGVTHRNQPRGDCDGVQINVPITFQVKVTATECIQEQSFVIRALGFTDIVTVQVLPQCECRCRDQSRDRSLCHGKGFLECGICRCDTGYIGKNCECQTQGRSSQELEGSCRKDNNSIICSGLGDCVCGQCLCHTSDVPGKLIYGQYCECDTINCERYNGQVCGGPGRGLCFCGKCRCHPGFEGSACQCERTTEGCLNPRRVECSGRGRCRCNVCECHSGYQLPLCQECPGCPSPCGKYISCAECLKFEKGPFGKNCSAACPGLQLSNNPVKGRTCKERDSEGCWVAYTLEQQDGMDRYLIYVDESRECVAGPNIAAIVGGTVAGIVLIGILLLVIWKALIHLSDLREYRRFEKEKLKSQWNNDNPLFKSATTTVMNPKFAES

The test addresses Intercellular adhesion molecule (ICAM-1), Integrin alpha-L/beta-2 (Homo sapiens, UniProt P05107+P05362+P20701). As to the kind of experiment: Inhibitory activity against association of LFA-1 with intercellular adhesion molecule 1. It counts as protein-complex assay.
Usually IC50 stands for the concentration needed to halve the response being measured. For the molecule `O=C(N[C@@H](Cc1c[nH]c2ccccc12)C(=O)O)c1ccccc1`, the IC50 turned out to be 127 µM. Under `O=C(N[C@@H](Cc1c[nH]c2ccccc12)C(=O)O)C1CCNCC1` stands above 1000 µM; under `O=C(N[C@@H](Cc1c[nH]c2ccccc12)C(=O)O)c1ccccc1O`, above 500 µM; under `O=C(N[C@@H](Cc1c[nH]cn1)C(=O)O)c1c(F)cccc1Cl`, 0.13 µM. Under `O=C(N[C@@H](Cc1c[nH]c2ccccc12)C(=O)O)c1c(F)cccc1Br` stands 0.43 µM; under `O=C(N[C@@H](Cc1c[nH]c2ccccc12)C(=O)O)C1CCCNC1` (stereo partly drawn), above 1000 µM; under `O=C(N[C@@H](Cc1c[nH]c2ccccc12)C(=O)O)c1ccccc1F`, 7.4 µM. For the molecule `O=C(O)[C@H](Cc1c[nH]c2ccccc12)NC(=O)N1CCCCC1`, the IC50 worked out at 380 µM.

Consider `O=C(N[C@@H](Cc1c[nH]c2ccccc12)C(=O)O)c1cccc(Cl)c1Cl`, for which the IC50 came to 6.3 µM. `NC(=O)C[C@H](NC(=O)c1c(Cl)cccc1Cl)C(=O)O` registered an IC50 of 0.17 µM. Regarding `Nc1ccc(C(=O)N[C@@H](Cc2c[nH]c3ccccc23)C(=O)O)c(Cl)c1`, half-maximal inhibition (IC50) was put at 2 µM. Take `O=C(N[C@@H](Cc1c[nH]c2ccccc12)C(=O)O)c1c(F)cccc1F`: the IC50 is 0.46 µM.

Take `O=C(N[C@@H](Cc1c[nH]c2ccccc12)C(=O)O)c1cc(Br)ccc1O`: the IC50 was above 500 µM. The value for `O=C(N[C@@H](Cc1c[nH]c2ccccc12)C(=O)O)c1ccccc1I` was 8.9 µM; that for `Cc1ccc(C(=O)N[C@@H](Cc2c[nH]c3ccccc23)C(=O)O)cc1` was 129 µM; that for `O=C(N[C@@H](Cc1c[nH]c2ccccc12)C(=O)O)c1cccnc1` was 112 µM.

In turn, `O=C(N[C@@H](Cc1c[nH]c2ccccc12)C(=O)O)c1cncc(Br)c1` had an IC50 above 200 µM. The value for `O=C(N[C@@H](Cc1c[nH]c2ccccc12)C(=O)O)C1CCCCC1` was 61 µM; that for `O=C(N[C@@H](Cc1c[nH]c2ccccc12)C(=O)O)c1c(F)cccc1Cl` was 0.25 µM. Molecule `O=C(N[C@@H](Cc1c[nH]c2ccccc12)C(=O)O)c1ccc(-c2ccccc2)cc1` registered an IC50 above 100 µM. Regarding `O=C(N[C@@H](Cc1c[nH]c2ccccc12)C(=O)O)c1ccc(Cl)cc1Cl`, the half-inhibitory concentration (IC50) worked out at 8.4 µM. The molecule `O=C(N[C@@H](Cc1c[nH]c2ccccc12)C(=O)O)c1ccccc1-c1ccccc1` displayed an IC50 above 100 µM. With `Cc1cccc(C(=O)N[C@@H](Cc2c[nH]c3ccccc23)C(=O)O)c1`, inhibition was half-maximal at 295 µM (IC50). In turn, `O=C(N[C@@H](Cc1c[nH]c2ccccc12)C(=O)O)c1ccc(F)cc1` registered an IC50 of 136 µM. As for `O=C(N[C@@H](Cc1c[nH]c2ccccc12)C(=O)O)c1ccc([N+](=O)[O-])cc1Cl`, the IC50 was 5.2 µM.

Molecule `Cc1cccc(C)c1C(=O)N[C@@H](Cc1c[nH]c2ccccc12)C(=O)O` gave an IC50 of 1.1 µM. `O=C(N[C@@H](Cc1c[nH]c2ccccc12)C(=O)O)c1cc(Br)ccc1Br`: the midpoint of inhibition, the IC50, lay at 24.3 µM.

In turn, `COc1ccc(C(=O)N[C@@H](Cc2c[nH]c3ccccc23)C(=O)O)cc1` registered an IC50 of 178 µM.

`NC(=O)C[C@H](NC(=O)c1c(F)cccc1Cl)C(=O)O`: the midpoint of inhibition, the IC50, lay at 0.11 µM.

Take `O=C(N[C@@H](Cc1c[nH]c2ccccc12)C(=O)O)c1cnccc1Cl`: the IC50 was 32.6 µM.

Turning to `O=C(N[C@@H](Cc1c[nH]c2ccccc12)C(=O)O)c1cccc(F)c1`, half-maximal inhibition (IC50) required 148 µM.

`O=C(N[C@@H](Cc1c[nH]cn1)C(=O)O)c1c(F)cccc1F` showed an IC50 of 0.2 µM. `NC(=O)C[C@H](NC(=O)c1c(F)cccc1F)C(=O)O`: the IC50 came to 0.23 µM. `O=C(N[C@@H](Cc1c[nH]c2ccccc12)C(=O)O)c1ccc(Br)cc1` displayed an IC50 of 61 µM. Regarding `O=C(N[C@@H](Cc1c[nH]c2ccccc12)C(=O)O)c1cccc(Br)c1`, the IC50 was above 100 µM.

For the molecule `COc1cccc(C(=O)N[C@@H](Cc2c[nH]c3ccccc23)C(=O)O)c1`, the midpoint of inhibition, the IC50, lay at 438 µM.

`O=C(N[C@@H](Cc1c[nH]c2ccccc12)C(=O)O)c1cccc(Cl)c1` returned an IC50 of 295 µM. Regarding `COc1ccccc1C(=O)N[C@@H](Cc1c[nH]c2ccccc12)C(=O)O`, the IC50 was determined as 225 µM. Under `O=C(N[C@@H](Cc1c[nH]c2ccccc12)C(=O)O)c1cc(Br)ccc1Cl` stands 17.9 µM. For the molecule `COc1ccc(Br)c(C(=O)N[C@@H](Cc2c[nH]c3ccccc23)C(=O)O)c1`, inhibition was half-maximal at 9 µM (IC50). As to `O=C(N[C@@H](Cc1c[nH]c2ccccc12)C(=O)O)c1cccc(O)c1`, the IC50 is above 100 µM. On to `O=C(N[C@@H](Cc1c[nH]c2ccccc12)C(=O)O)c1cccc(I)c1`, for which the IC50 was above 100 µM. In turn, `Cc1cccc(Cl)c1C(=O)N[C@@H](Cc1c[nH]c2ccccc12)C(=O)O` returned an IC50 of 0.64 µM. With `O=C(N[C@@H](Cc1c[nH]c2ccccc12)C(=O)O)c1ccc[n+]([O-])c1`, the IC50 was above 1000 µM.

`CC1CCCCC1C(=O)N[C@@H](Cc1c[nH]c2ccccc12)C(=O)O` (stereo partly drawn) showed an IC50 of 28 µM. Turning to `Cc1cccc(C)c1C(=O)N[C@@H](Cc1cnc[nH]1)C(=O)O`, the IC50 turned out to be 1.77 µM. In turn, `O=C(N[C@@H](Cc1c[nH]c2ccccc12)C(=O)O)c1ccccn1` returned an IC50 above 100 µM. `Cc1ccccc1C(=O)N[C@@H](Cc1c[nH]c2ccccc12)C(=O)O` yielded an IC50 of 4 µM.

Molecule `O=C(N[C@@H](Cc1c[nH]c2ccccc12)C(=O)O)c1cc(Cl)cc(Cl)c1` gave an IC50 of 200 µM. Turning to `O=C(N[C@@H](Cc1c[nH]c2ccccc12)C(=O)O)c1cc(F)cc(F)c1`, the IC50 worked out at 89.7 µM. Consider `O=C(N[C@@H](Cc1c[nH]c2ccccc12)C(=O)O)c1ccncc1`, for which the IC50 came to 92 µM. Consider `O=C(N[C@@H](Cc1c[nH]c2ccccc12)C(=O)O)c1cc(F)ccc1F`, for which half-maximal inhibition (IC50) was put at 11.5 µM. Take `O=C(N[C@@H](Cc1c[nH]c2ccccc12)C(=O)O)c1ccc(O)cc1`: the IC50 is above 100 µM. Molecule `O=C(N[C@@H](Cc1c[nH]c2ccccc12)C(=O)O)c1ccc(Cl)c(Cl)c1` registered an IC50 of 170 µM. The value for `O=C(N[C@@H](Cc1cnc[nH]1)C(=O)O)c1c(Cl)cccc1Cl` was 0.16 µM.

For the molecule `O=C(N[C@@H](Cc1c[nH]c2ccccc12)C(=O)O)c1ccc(I)cc1`, half-maximal inhibition (IC50) was put at 92 µM. The value for `O=C(N[C@@H](Cc1c[nH]c2ccccc12)C(=O)O)c1c(Cl)cccc1Cl` was 0.6 µM; that for `O=C(N[C@@H](Cc1c[nH]c2ccccc12)C(=O)O)c1cccc(F)c1F` was 21.6 µM; that for `O=C(N[C@@H](Cc1c[nH]c2ccccc12)C(=O)O)c1ccccc1Cl` was 1.5 µM. `O=C(N[C@@H](Cc1c[nH]c2ccccc12)C(=O)O)c1cc(Cl)ccc1Cl` registered an IC50 of 6.6 µM. Under `O=C(N[C@@H](Cc1c[nH]c2ccccc12)C(=O)O)c1cccnc1Cl` stands 1.2 µM; under `O=C(N[C@@H](Cc1c[nH]c2ccccc12)C(=O)O)C1CCCCN1` (stereo partly drawn) (H-[ξPip]-Trp-OH), above 1000 µM. `O=C(N[C@@H](Cc1c[nH]c2ccccc12)C(=O)O)c1ccc(Cl)cc1` [BENZOTRIPT]: 169 µM corresponded to half-maximal inhibition (IC50).

(Values after ChEMBL document CHEMBL1147537, “N-Benzoyl amino acids as ICAM/LFA-1 inhibitors. Part 2: structure-activity relationship of the benzoyl moiety” (Bioorg Med Chem Lett, 2004).)
